Experimental data from ChEMBL document CHEMBL1201862, “PubChem BioAssay data set” (2004).
Active and inactive are the calls of the source.

Assays:
[1] = molecular target: Histone-lysine N-methyltransferase NSD2 (Homo sapiens, UniProt O96028); type: biochemical
[2] = Counterscreen for antagonists of the human trace amine associated receptor 1 (hTAAR1): Fluorescence-based cell-based high throughput dose response assay to identify nonselective Ga16 antagonists.; type: functional
[3] = Counterscreen for […] of the human trace amine associated receptor 1 (TAAR1): Fluorescence-based cell-based high throughput dose response assay to identify nonselective Ga16 agonists.; type: functional
[4] = molecular target: T1, Trace amine-associated receptor 1 (Homo sapiens, UniProt Q96RJ0); assay: Counterscreen for antagonists of the human trace amine associated receptor 1 (hTAAR1): Fluorescence-based cell-based high throughput dose response assay to identify TAAR1 Agonists.; type: functional
T1 sequence (Q96RJ0 whole entry): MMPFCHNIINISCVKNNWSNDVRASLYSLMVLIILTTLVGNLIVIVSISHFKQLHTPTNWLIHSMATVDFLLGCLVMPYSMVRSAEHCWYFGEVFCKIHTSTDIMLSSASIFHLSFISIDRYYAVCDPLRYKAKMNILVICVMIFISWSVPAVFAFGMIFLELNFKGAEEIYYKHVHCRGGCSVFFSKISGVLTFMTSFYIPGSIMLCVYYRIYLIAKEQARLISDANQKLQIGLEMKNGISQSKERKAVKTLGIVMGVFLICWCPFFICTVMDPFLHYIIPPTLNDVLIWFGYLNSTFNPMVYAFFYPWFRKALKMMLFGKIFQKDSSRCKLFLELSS

[5] = molecular target: T1, Trace amine-associated receptor 1; assay: Fluorescence-based cell-based high throughput dose response assay to identify antagonists of the human trace amine associated receptor 1 (TAAR1).; type: functional
[6] = molecular target: Beta-lactamase (Salmonella choleraesuis (strain SC-B67), UniProt Q5J463); assay: Epi-absorbance-based counterscreen for selective VIM-2 inhibitors: dose response biochemical high throughput screening assay to identify inhibitors of TEM-1 serine-beta-lactamase.
[7] = molecular target: T2, Beta-lactamase (Pseudomonas aeruginosa, UniProt Q79MP6); assay: […] counterscreen for selective VIM-2 inhibitors: dose response biochemical high throughput screening assay to identify inhibitors of IMP-1 metallo-beta-lactamase.
[8] = molecular target: T2, Beta-lactamase; assay: inhibition of IMP-1 beta-lactamase activity – biochemical, epi-absorbance, selectivity assay for VIM-2 inhibitor project, dose response (AID 1920)
[9] = system: Vero; assay: viability loss in Vero cells – cell-based, plate reader, cherry-pick samples, cytotoxicity control, dose response (AID 687020); type: functional; details: Chlorocebus sabaeus
[10] = system: A549; assay: viability loss in A549 cells – cell-based, plate reader, cherry-pick samples, cytotoxicity control, dose response (AID 687028); type: functional; details: Homo sapiens
[11] = molecular target: T3, Matrix metalloproteinase-14 (Homo sapiens, UniProt P50281); assay: Dose Response confirmation of uHTS hits for a small molecule inhibitors of MT1-MMP activation in a fluorescence assay set 2.; type: functional
[12] = molecular target: T3, Matrix metalloproteinase-14; assay: SAR confirmation of uHTS hits for a small molecule inhibitors of MT1-MMP activation in a fluorescence assay.; type: functional
[13] = molecular target: 72 kDa type IV collagenase (Homo sapiens, UniProt P08253); assay: Dose Response validation of uHTS RPN11 inhibitor hits using a MMP-2 Fluorescence assay.; type: functional
[14] = molecular target: Prothrombin (Bos taurus, UniProt P00735); assay: thrombin protease inhibitors – biochemical, fluorescence polarization, uHTS hits, dose response (AID 602369); type: functional
[15] = molecular target: 26S proteasome non-ATPase regulatory subunit 14 (Homo sapiens, UniProt O00487); assay: inhibition of proteasome subunit RPN11 – biochemical, fluorescence polarization, uHTS hits, confirmation (AID 602368); type: functional
[16] = molecular target: Arf-GAP with SH3 domain, ANK repeat and PH domain-containing protein 1 (Homo sapiens, UniProt Q9ULH1); type: functional;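 further: biochemical fluorescence polarization dose–response screen measuring inhibition of ASAP1; ASAP1 GAP domain stimulating GTP hydrolysis by truncated human ARF1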
[17] = molecular target: Long-chain-fatty-acid--AMP ligase FadD28 (Mycobacterium tuberculosis, UniProt P9WQ59); assay: Fluorescence polarization aasay to screen for inhibitors that compete for the binding of FadD28 to a bisubstrate Measured in Biochemical System Using Plate Reader - 2147-01_Inhibitor_Dose_CherryPick_Activity.; type: functional, Mycobacterium tuberculosis H37Rv
[18] = general mammalian cell viability loss – inhibitor set, cherry-pick, set 2, cytotoxicity control for miR-122 modulator project, dose response (AID 720697); type: functional, cell-based
[19] = molecular target: Beta-galactosidase (Escherichia coli, UniProt Q8VNN2); assay: Dose response counterscreen for EBI2 assay utilizing the enzyme, b-galactosidase.; type: functional
[20] = OVCAR8 cell viability loss – plate reader, dry powder samples, PAX8 project, dose response (AID 743197); type: functional, cell-based; details: OVCAR-8
[21] = CMV-driven luciferase expression suppression in HEK293 – cell-based, luminescence, dry powder, counter-screen for Pax8 inhibitor project, dose response (AID 743020); type: functional
[22] = molecular target: Paired box protein Pax-8 (Homo sapiens, UniProt Q06710); assay: PAX8 transcriptional activity inhibition in RMG-I – RMG-I cells, luciferase, cherry-pick, dose response (AID 687027); type: functional, cell-based;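 further: luciferase reporter driven by Pax8 target thyroperoxidase promoter measured by SteadyGlo luminescence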
[23] = OVCAR-3 cell viability loss – plate reader, dry powder samples, PAX8 inhibitor project, dose response (AID 743044); type: functional, cell-based
[24] = inhibition of bursicon-driven LGR2 cAMP signaling – cell-based, HEK293, CRE-luciferase reporter, cherry pick, dose response (AID 743342); type: functional
[25] = A549 cell cytotoxicity, dose response, cytotoxicity control, plate reader, cherry-pick, antagonist series (AID 743412); type: functional, cell-based
[26] = T. cruzi growth inhibition in host cells, dose response, cell-based, plate reader, dry powder, set 2 (AID 652275); type: functional

T2 sequence (Q79MP6 whole entry): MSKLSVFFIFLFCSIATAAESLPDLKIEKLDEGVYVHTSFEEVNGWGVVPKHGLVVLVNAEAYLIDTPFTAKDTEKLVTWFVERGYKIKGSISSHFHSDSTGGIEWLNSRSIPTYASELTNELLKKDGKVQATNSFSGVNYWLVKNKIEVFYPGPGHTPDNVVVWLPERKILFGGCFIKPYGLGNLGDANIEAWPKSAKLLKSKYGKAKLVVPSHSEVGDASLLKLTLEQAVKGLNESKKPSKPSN
Sequence of 26S proteasome non-ATPase regulatory subunit 14 (O00487 whole entry, the tested form may be a part): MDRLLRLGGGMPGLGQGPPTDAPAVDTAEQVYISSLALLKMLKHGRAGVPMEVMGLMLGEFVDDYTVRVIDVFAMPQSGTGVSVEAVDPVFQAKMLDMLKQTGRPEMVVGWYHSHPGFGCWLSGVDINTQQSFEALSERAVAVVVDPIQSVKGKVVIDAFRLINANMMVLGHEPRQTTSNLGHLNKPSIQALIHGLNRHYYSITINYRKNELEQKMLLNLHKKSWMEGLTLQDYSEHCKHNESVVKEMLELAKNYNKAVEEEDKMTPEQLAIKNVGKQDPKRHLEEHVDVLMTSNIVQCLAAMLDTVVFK
Sequence of Long-chain-fatty-acid--AMP ligase FadD28 (P9WQ59 whole entry): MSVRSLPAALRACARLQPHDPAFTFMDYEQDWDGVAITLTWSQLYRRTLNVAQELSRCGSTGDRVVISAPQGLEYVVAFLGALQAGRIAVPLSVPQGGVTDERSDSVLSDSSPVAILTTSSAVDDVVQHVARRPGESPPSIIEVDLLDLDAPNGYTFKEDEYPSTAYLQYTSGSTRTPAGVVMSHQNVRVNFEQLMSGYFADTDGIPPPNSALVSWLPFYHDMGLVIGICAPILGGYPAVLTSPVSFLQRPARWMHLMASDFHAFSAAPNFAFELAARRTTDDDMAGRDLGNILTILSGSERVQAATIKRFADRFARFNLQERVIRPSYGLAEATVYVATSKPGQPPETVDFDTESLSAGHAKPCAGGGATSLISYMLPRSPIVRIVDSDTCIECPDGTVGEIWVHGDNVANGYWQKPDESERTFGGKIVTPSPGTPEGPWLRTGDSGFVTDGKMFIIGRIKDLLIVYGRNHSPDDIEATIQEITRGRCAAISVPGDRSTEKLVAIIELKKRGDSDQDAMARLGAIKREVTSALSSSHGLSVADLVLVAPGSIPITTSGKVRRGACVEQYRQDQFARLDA
Sequence of Arf-GAP with SH3 domain, ANK repeat and PH domain-containing protein 1 (Q9ULH1 whole entry, the tested form may be a part): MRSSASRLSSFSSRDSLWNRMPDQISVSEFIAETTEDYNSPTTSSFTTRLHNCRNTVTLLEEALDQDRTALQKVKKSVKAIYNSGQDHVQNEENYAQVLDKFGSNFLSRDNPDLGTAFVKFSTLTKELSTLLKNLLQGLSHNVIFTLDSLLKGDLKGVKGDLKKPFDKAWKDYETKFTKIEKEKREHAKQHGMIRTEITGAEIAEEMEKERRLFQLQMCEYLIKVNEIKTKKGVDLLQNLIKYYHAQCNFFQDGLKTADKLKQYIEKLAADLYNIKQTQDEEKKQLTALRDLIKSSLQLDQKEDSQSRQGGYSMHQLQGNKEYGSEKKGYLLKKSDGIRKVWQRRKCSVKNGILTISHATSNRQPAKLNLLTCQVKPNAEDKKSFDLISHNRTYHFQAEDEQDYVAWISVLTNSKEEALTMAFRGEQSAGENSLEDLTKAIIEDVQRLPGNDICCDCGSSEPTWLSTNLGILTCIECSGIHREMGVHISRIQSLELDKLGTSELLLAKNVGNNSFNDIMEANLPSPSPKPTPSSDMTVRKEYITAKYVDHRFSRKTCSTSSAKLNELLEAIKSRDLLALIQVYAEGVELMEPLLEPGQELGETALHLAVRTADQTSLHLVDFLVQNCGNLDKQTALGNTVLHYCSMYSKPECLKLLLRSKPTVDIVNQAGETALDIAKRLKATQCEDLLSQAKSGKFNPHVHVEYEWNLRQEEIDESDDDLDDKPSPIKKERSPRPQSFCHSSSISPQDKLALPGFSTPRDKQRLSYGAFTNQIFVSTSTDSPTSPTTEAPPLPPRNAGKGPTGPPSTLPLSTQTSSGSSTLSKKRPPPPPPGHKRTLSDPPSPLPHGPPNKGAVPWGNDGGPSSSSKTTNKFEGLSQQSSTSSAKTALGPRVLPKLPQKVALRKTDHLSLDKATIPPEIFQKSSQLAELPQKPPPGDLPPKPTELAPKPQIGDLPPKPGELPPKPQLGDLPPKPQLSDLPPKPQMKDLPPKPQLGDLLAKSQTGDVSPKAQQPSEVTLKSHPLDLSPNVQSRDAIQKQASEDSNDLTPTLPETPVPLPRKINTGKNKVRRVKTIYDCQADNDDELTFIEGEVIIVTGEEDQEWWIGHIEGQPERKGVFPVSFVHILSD
Sequence of 72 kDa type IV collagenase (P08253 whole entry): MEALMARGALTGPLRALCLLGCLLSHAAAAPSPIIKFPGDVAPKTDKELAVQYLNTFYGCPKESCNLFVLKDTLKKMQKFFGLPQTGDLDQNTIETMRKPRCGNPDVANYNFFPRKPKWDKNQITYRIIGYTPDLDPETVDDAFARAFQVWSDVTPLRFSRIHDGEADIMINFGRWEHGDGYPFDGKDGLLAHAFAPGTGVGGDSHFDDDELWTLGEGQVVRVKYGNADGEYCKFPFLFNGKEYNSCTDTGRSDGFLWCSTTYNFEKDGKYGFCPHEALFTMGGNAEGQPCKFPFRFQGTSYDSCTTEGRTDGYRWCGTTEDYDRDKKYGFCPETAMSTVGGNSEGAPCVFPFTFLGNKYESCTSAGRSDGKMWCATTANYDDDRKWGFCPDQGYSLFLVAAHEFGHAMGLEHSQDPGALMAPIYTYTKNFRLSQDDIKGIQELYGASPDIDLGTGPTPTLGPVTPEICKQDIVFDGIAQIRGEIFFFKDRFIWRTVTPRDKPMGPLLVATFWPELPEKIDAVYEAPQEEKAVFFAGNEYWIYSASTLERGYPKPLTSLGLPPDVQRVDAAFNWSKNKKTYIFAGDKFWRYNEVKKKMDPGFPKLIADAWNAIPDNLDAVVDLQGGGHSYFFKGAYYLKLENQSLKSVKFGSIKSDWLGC
Sequence of Histone-lysine N-methyltransferase NSD2 (O96028 whole entry): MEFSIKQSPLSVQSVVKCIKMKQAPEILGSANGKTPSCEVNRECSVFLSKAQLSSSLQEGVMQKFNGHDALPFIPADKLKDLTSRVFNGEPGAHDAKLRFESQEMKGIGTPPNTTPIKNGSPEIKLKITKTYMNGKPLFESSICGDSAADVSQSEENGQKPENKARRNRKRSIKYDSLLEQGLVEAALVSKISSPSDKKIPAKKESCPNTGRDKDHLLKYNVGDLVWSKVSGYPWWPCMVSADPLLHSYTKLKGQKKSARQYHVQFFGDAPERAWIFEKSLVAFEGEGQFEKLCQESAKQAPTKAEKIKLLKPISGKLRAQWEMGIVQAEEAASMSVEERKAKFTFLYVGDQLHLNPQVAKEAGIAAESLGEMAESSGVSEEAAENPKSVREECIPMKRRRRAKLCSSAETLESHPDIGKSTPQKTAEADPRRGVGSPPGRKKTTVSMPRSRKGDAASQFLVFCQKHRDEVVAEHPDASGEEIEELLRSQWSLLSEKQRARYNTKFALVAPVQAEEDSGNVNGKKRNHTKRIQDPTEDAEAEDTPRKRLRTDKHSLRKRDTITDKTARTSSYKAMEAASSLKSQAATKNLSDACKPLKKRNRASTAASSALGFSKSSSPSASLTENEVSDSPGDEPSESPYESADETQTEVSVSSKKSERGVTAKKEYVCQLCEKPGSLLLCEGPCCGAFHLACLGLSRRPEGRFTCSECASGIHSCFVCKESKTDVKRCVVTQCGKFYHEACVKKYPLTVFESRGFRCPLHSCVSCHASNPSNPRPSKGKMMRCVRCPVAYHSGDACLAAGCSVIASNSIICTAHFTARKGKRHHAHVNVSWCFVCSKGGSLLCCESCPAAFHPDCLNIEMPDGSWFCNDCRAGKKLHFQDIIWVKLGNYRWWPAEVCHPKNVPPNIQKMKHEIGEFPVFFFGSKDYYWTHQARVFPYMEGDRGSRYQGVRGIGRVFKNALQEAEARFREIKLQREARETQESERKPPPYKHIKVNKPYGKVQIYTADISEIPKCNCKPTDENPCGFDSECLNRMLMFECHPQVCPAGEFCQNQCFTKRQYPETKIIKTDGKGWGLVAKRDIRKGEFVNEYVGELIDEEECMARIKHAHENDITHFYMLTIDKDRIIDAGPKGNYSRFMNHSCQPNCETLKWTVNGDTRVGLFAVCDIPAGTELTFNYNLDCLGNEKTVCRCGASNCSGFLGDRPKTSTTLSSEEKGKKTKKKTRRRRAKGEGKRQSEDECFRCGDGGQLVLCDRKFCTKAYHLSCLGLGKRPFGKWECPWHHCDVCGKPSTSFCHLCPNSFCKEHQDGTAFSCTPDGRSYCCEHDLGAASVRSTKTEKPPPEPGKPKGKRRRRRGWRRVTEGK
Sequence of Beta-lactamase (Salmonella choleraesuis (strain SC-B67), UniProt Q5J463) (Q5J463 whole entry): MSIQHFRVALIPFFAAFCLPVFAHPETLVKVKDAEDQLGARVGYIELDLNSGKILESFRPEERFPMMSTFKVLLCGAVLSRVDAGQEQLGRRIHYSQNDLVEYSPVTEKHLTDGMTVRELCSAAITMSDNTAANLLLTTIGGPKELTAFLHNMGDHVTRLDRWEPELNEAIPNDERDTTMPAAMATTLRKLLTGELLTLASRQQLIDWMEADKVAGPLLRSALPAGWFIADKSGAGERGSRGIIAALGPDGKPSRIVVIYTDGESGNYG
Sequence of Paired box protein Pax-8 (Q06710 whole entry): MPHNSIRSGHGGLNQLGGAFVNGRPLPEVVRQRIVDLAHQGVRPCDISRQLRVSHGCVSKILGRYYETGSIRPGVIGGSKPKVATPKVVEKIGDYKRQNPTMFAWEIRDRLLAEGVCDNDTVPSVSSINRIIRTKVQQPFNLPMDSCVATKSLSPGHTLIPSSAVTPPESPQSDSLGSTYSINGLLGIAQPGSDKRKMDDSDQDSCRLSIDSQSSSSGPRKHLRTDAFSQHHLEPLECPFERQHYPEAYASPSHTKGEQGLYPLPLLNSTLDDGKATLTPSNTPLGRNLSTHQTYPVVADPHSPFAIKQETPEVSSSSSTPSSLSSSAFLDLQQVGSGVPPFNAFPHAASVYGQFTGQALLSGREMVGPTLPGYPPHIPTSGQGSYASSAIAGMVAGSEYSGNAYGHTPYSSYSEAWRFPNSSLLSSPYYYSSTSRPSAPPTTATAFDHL

Question: With `CCN=C(S)N(CCCN(CC)CC)Cc1cc2cc3c(cc2nc1O)OCO3` as the compound, how does the AC50 [1] read?
Answer: The AC50 was 15.7 µM (active).

Question: For `O=C(CCSCc1cccc(F)c1)NCCc1ccccc1`, which IC50 [2] is on record?
Answer: The IC50 was > 29.9 µM (inactive).

Question: What about the EC50 [3] of the same compound?
Answer: Its EC50 is > 29.9 µM (inactive).

Question: And the EC50 [4]?
Answer: The EC50 was > 29.9 µM (inactive).

Question: And the IC50 [5]?
Answer: Its IC50 is 7.43 µM (active).

Question: Which results are given for `Fc1ccccc1-c1nnc(S)n1Cc1ccccc1`?
Answer: IC50 [6]: > 59.6 µM (inactive); IC50 [7]: > 59.6 µM (inactive); IC50 [8]: > 59.6 µM (inactive)

Question: For `Cc1cccc(C(=O)N2CCC(=O)N([C@H](COCc3ccc(Cl)cc3)Cc3ccccc3)CC2)c1`, which AC50 [9] is on record?
Answer: The AC50 was 33.6 µM (active).

Question: What about the AC50 [10] of the same compound?
Answer: Its AC50 is 28.5 µM (active).

Question: With `CN1/C(=C\C(=O)c2cncc(Br)c2)C(C)(C)c2ccccc21` as the compound, how does the IC50 [11] read?
Answer: The IC50 was 23.7 µM (inactive).

Question: And the IC50 [12]?
Answer: The IC50 was 66.5 µM (inactive).

Question: For `N#Cc1ccc(-c2ccc(OCC(=O)NCC(=O)Nc3ccc(F)c(F)c3F)cc2)cc1`, which IC50 [13] is on record?
Answer: The IC50 was > 100 µM (inactive).

Question: And the IC50 [14]?
Answer: The IC50 was > 100 µM (inactive).

Question: What about the IC50 [15] of the same compound?
Answer: The IC50 was 12.7 µM (active).

Question: What about the IC50 [16] of the same compound?
Answer: The IC50 was 26.1 µM (inactive).

Question: Which AC50 [17] does the source give for `COc1cccc(-n2nnnc2SCC(=O)Nc2cccc(C)n2)c1` here?
Answer: Its AC50 is 50.1 µM (active).

Question: Which AC50 [18] does the source give for `CC1CCN(CCc2nc3cc(NC(=O)Nc4ccccc4)ccc3n2C)CC1` here?
Answer: Its AC50 is 2.74 µM (active).

Question: Which IC50 [19] does the source give for `CCOC(=O)C1CCN(C2=NC(=O)/C(=C/c3ccc(Cl)cc3)S2)CC1` here?
Answer: Its IC50 is > 80 µM (inactive).

Question: Which AC50 [20] does the source give for `C[C@H]1CN([C@@H](C)CO)S(=O)(=O)c2ccc(C#CC3CCCC3)cc2O[C@@H]1CN(C)Cc1cccnc1` here?
Answer: Its AC50 is > 70 µM (inactive).

Question: And the AC50 [21]?
Answer: Its AC50 is 39.4 µM (active).

Question: And the AC50 [22]?
Answer: Its AC50 is 14.4 µM (active).

Question: And the AC50 [23]?
Answer: The AC50 was 37.1 µM (active).

Question: Which results are given for `C[C@H](CO)N1C[C@H](C)[C@H](CN(C)C(=O)Nc2ccc3c(c2)OCO3)OCCCC[C@H](C)Oc2ccc(NC(=O)C3CCCCC3)cc2C1=O`?
Answer: AC50 [24]: 2.21 µM (active); AC50 [25]: 41 µM (active)

Question: Which AC50 [26] does the source give for `C[C@@H](CO)N1CC[C@H](CNCc2ccc(Oc3ccccc3)cc2)Oc2c(NC(=O)c3ccncc3)cccc2C1=O` here?
Answer: The AC50 was 0.0179 µM (active).
